Source: patent publication US20160287617A1 (priority 2013, published 2016)
Marks after values point to notes of the source that are not given here.

Assays:
Set-up in all cases: species or system broiler chickens
Details in all cases: in vivo
T-2 toxin in chickens [1] = test system: T-2 toxin in chickens
T-2 toxin in chickens [2] = test system: T-2 toxin in chickens; remark: listed apart in the source
T-2 toxin in chickens [3] = test system: T-2 toxin in chickens; remark: listed apart in the source
T-2 toxin in chickens [4] = test system: T-2 toxin in chickens; remark: listed apart in the source
Newcastle = test system: Newcastle
T-2 toxin in chickens [5] = test system: T-2 toxin in chickens; remark: listed apart in the source

T-2 toxin
Feed consumption, medians ± standard error (T-2 toxin in chickens [1]): 2035 ± 44.3 ^a
Feed conversion, medians ± standard error (T-2 toxin in chickens [1]): 1.45 ± 0.035 ^b
Weight gain, medians ± standard error (T-2 toxin in chickens [1]): 1399 ± 29.46 ^b
Weight in g, Final (28 days), medians ± standard error (T-2 toxin in chickens [1]): 1442 ± 29.49 ^b g
Weight in g, Initial, medians ± standard error (T-2 toxin in chickens [1]): 43 ± 0.43 ^a g
Xantophylls (oral solution), medians ± standard error (T-2 toxin in chickens [1]; po): 8.92 ± 0.70 ^b mg/L
Relative weight of bursa of Fabricius (%), medians ± standard error (T-2 toxin in chickens [2]): 0.248 ± 0.016 ^a %
Relative weight of kidney (%), medians ± standard error (T-2 toxin in chickens [2]): 0.809 ± 0.032 ^a %
Relative weight of liver (%), medians ± standard error (T-2 toxin in chickens [2]): 2.57 ± 0.104 ^a %
Relative weight of spleen (%), medians ± standard error (T-2 toxin in chickens [2]): 0.094 ± 0.009 ^a %
Relative weight of thymus (%), medians ± standard error (T-2 toxin in chickens [2]): 0.282 ± 0.020 ^a %
Granulocytes (segmented neutrophils and band neutrophils), medians ± standard error (T-2 toxin in chickens [3]): 0.9 ± 0.17 ^a 10^3/μL
Hematocrit, medians ± standard error (T-2 toxin in chickens [3]): 31.8 ± 1.56 ^a %
Hemoglobin, medians ± standard error (T-2 toxin in chickens [3]): 12.1 ± 0.46 ^a g/dL
Lymphocytes, medians ± standard error (T-2 toxin in chickens [3]): 58.4 ± 3.32 ^b 10^3/μL
Median cell count (monocytes, basophils and eosinophils), medians ± standard error (T-2 toxin in chickens [3]): 5.8 ± 0.76 ^a 10^3/μL
Platelets, medians ± standard error (T-2 toxin in chickens [3]): 31 ± 4.95 ^a 10^3/μL
Red blood cells (erythrocytes), medians ± standard error (T-2 toxin in chickens [3]): 2.46 ± 0.12 ^a 10^6/μL
White blood cells (Leukocytes), medians ± standard error (T-2 toxin in chickens [3]): 65.10 ± 4.07 ^b 10^3/μL
Ash, medians ± standard error (T-2 toxin in chickens [4]): 56.37 ± 0.32 ^a %
Calcium, medians ± standard error (T-2 toxin in chickens [4]): 20.43 ± 0.19 ^a %
Manganesium, medians ± standard error (T-2 toxin in chickens [4]): 6.7 ± 0.21 ^a mg/kg
Phosphorous, medians ± standard error (T-2 toxin in chickens [4]): 9.72 ± 0.07 ^a %
Zinc, medians ± standard error (T-2 toxin in chickens [4]): 247 ± 4.37 ^a mg/kg
Inhibition of Newcastle hemagglutination (18 days after vaccination), medians ± standard error (Newcastle): 8.717 ± 0.29 ^b Log2
Gizzard: loss of continuity, ulcer activity (moderate multifocal ulcerative ventriculitis) (T-2 toxin in chickens [5]): 7/12
Gizzard: scant erosions in the recovery zone (discrete, multifocal erosions) (T-2 toxin in chickens [5]): 5/12
Kidney: lymphocyte clusters in the interstitial space (T-2 toxin in chickens [5]): 4/12
Larynx: no significant changes (T-2 toxin in chickens [5]): 4/12
Liver: areas of extramedullary hematopoiesis (T-2 toxin in chickens [5]): 1/12
Liver: multifocal lymphocyte clusters around portal cavities and in the parenchymal (lymphocytic colangiohepatitis) (T-2 toxin in chickens [5]): 8/12
Liver: scant fat vacuoles/cells in hepatocyte cytoplasm (esteatosis) (T-2 toxin in chickens [5]): 3/12
Proventriculus: hyperplasia / cluster of associated lymphoid tissue (T-2 toxin in chickens [5]): 1/12
Proventriculus: no significant changes (T-2 toxin in chickens [5]): 11/12
Spleen, thymus: no significant changes (T-2 toxin in chickens [5]): 12/12
Tongue: dense plates above epithelium lining with lymphocyte and macrophage clusters (estomatitis and erosive/necrotic glositis) (T-2 toxin in chickens [5]): 8/12
Tongue: no significant changes (animals/examined) (T-2 toxin in chickens [5]): 4/12
